The record followed here is US8802678B2, “Carbonylated (aza) cyclohexanes as dopamine D3 receptor ligands” (Bioprojet, priority 2006, dated 2014).

In turn, `Cl.N#CCC(=O)N[C@H]1CC[C@H](CCN2CCN(c3ccccc3)CC2)CC1` displayed a melting point of 243 °C.

As for `Cl.Cl.O=C(CN1CCC(CCN2CCN(c3cccc(C(F)(F)F)c3)CC2)CC1)c1ccccc1`, the melting point was determined as 260 °C. In the case of `Cl.N#CCC(=O)N[C@H]1CC[C@@H](CCN2CCN(c3ccccc3F)CC2)CC1`, the melting point is 153 °C. The compound `COCC(=O)N1CCC(CCN2CCN(c3cccc(C(F)(F)F)c3)CC2)CC1.Cl` gave a melting point of 150 °C. The compound `CC(C)Oc1cccc(N2CCN(CC[C@H]3CC[C@H](NC(=O)CC#N)CC3)CC2)c1.Cl` had a melting point of 191 °C.

In turn, `CC(=O)CN1CCC(CCN2CCN(c3cc(C#N)cc(C(F)(F)F)c3)CC2)CC1.Cl.Cl` yielded a melting point of 280 °C.

`N#CCC(=O)N[C@H]1CC[C@H](CCN2CC=C(c3cc(C(F)(F)F)cc(C(F)(F)F)c3)CC2)CC1` gave a melting point of 174 °C. The result for `CC(=O)CN1CCC(CCN2CCN(c3cccc(C)c3C#N)CC2)CC1.Cl.Cl` reads 215 °C; that for `COc1ccc(C)c(N2CCN(CCC3CCN(CC(C)=O)CC3)CC2)c1.Cl.Cl`, 283 °C. Turning to `CC(=O)CN1CCC(CCN2CCN(c3cccc(C)c3C)CC2)CC1.Cl.Cl`, the melting point is 290 °C. The result for `CC(=O)CN1CCC(CCN2CCN(c3ccccc3C)CC2)CC1.Cl.Cl` reads 289 °C; that for `CC(=O)CN1CCC(CCN2CCN(c3cccc4c3CCCC4)CC2)CC1.Cl.Cl`, 320 °C; that for `CC(=O)CN1CCC(CCN2CCN(c3cccc(C(F)(F)F)c3F)CC2)CC1.Cl.Cl`, 270 °C. As for `CC(=O)CN1CCC(CCN2CCN(c3cccc(F)c3C)CC2)CC1.Cl.Cl`, the melting point came out at 317 °C. In turn, `CC(=O)CN1CCC(CCN2CCN(c3cc(C(F)(F)F)cc(C(F)(F)F)c3)CC2)CC1.Cl.Cl` returned a melting point of 260 °C. In turn, `N#CCC(=O)N[C@H]1CC[C@H](CCN2CC=C(c3cccc(C(F)(F)F)c3F)CC2)CC1` returned a melting point of 171 °C. In turn, `COc1cccc(N2CCN(CCC3CCN(CC(C)=O)CC3)CC2)c1.Cl.Cl` gave a melting point of 265 °C. For `CC(=O)CN1CCC(CCN2CCN(c3cccc(OC(F)(F)F)c3)CC2)CC1.Cl.Cl`, the melting point was 275 °C. The result for `CCc1ccccc1N1CCN(CCC2CCN(CC(C)=O)CC2)CC1.Cl.Cl` reads 291 °C; that for `CC(=O)CN1CCC(CCN2CCN(c3cccc4c3CCC4)CC2)CC1.Cl.Cl`, 295 °C; that for `N#CCCCC(=O)N[C@H]1CC[C@H](CCN2CC=C(c3cccc(C(F)(F)F)c3F)CC2)CC1`, 130 °C.

As for `N#CCC(=O)N[C@H]1CC[C@H](CCN2CC=C(c3ccc(Cl)cc3)CC2)CC1`, the melting point was 220 °C. For `Cc1cc(C)cc(C2=CCN(CC[C@H]3CC[C@H](NC(=O)CC#N)CC3)CC2)c1`, the melting point stood at 182 °C. The compound `Cc1cc(C)cc(C2=CCN(CC[C@H]3CC[C@H](NC(=O)CCCC#N)CC3)CC2)c1` gave a melting point of 166 °C. For the compound `N#CCC(=O)N[C@H]1CC[C@@H](CCN2CC=C(c3ccc(F)cc3)CC2)CC1`, the melting point is 147 °C. Turning to `CC(=O)CN1CCC(CCN2CCN(c3ccccc3C(C)C)CC2)CC1.Cl.Cl`, the melting point was determined as 260 °C. The result for `N#CCCCC(=O)N[C@H]1CC[C@H](CCN2CC=C(c3ccccc3)CC2)CC1` reads 171 °C; that for `CC(=O)CN1CCC(CCN2CCN(c3ccc(C)c(C(F)(F)F)c3)CC2)CC1.Cl.Cl`, 325 °C; that for `CC(=O)CN1CCC(CCN2CCN(c3ccc(F)cc3F)CC2)CC1.Cl.Cl`, 260 °C. In the case of `CCOCC(=O)N[C@H]1CC[C@H](CCN2CC=C(c3ccc(Cl)cc3)CC2)CC1`, the melting point worked out at 149 °C. The compound `N#CCCCC(=O)N[C@H]1CC[C@H](CCN2CC=C(c3ccc(F)cc3)CC2)CC1` displayed a melting point of 180 °C. In the case of `O=C(N[C@H]1CC[C@H](CCN2CC=C(c3ccccc3)CC2)CC1)C1=CCCC1`, the melting point stood at 202 °C. `CC(=O)CN1CCC(CCN2CCN(c3cccc4c3OCO4)CC2)CC1.Cl.Cl` registered a melting point of 264 °C. With `CC(=O)CN1CCC(CCN2CCN(c3cc(C)ccc3F)CC2)CC1.Cl.Cl` the figure was 275 °C; with `CC(=O)CC1CCC(CCN2CCN(c3cccc(C(F)(F)F)c3)CC2)CC1.Cl` (centres unmarked), 160 °C. `CC(=O)CN1CCC(CCN2CCN(c3cc(C(C)(C)C)nc(C(C)(C)C)n3)CC2)CC1.Cl.Cl` gave a melting point of 310 °C. Compound `CC(=O)CN1CCC(CCN2CCN(c3cccc(C(=O)C(C)C)c3)CC2)CC1.Cl.Cl` returned a melting point of 250 °C.

`Cl.N#CCC(=O)N1CCC(CCN2CCN(c3cccc4c3CCC4)CC2)CC1` had a melting point of 210 °C. With `CC(=O)C(=O)N1CCC(CCN2CCN(c3cccc(Cl)c3Cl)CC2)CC1.Cl` the figure was 244 °C; with `Cl.N#CCC(=O)N1CCC(CCN2CCN(c3cccc(Cl)c3Cl)CC2)CC1`, 228 °C. Consider `Cl.NC(=O)CCC(=O)N1CCC(CCN2CCN(c3cccc4c3CCC4)CC2)CC1`, for which the melting point was found to be 137 °C. `CC(=O)CN1CCC(CCN2CCc3cc(C#N)ccc3C2)CC1.Cl.Cl` had a melting point of 249 °C. For the compound `COc1ccc(OC)c(N2CCN(CCC3CCN(CC(C)=O)CC3)CC2)c1.Cl.Cl`, the melting point was determined as 268 °C. Compound `COc1ccc(C)cc1N1CCN(CCC2CCN(CC(C)=O)CC2)CC1.Cl.Cl` came in with a melting point of 260 °C. `N#CCC(=O)N[C@H]1CC[C@H](CCN2CC=C(c3cc(C(F)(F)F)ccc3F)CC2)CC1` showed a melting point of 168 °C. Regarding `CCCOCC(=O)N[C@H]1CC[C@H](CCN2CCN(c3cc(C(F)(F)F)ccc3F)CC2)CC1.Cl`, the melting point was 240 °C.

On to `CC(=O)CN1CCC(CCN2CCN(c3cccc(Cc4ccccc4)c3)CC2)CC1.Cl.Cl`, for which the melting point was 253 °C.

For the compound `CC(=O)CN1CCC(CCN2CCN(c3ccc(F)c(F)c3)CC2)CC1.Cl.Cl`, the melting point amounted to 249 °C. Compound `CCOCC(=O)N1CCC(CCN2CCN(c3cccc4c3CCC4)CC2)CC1.Cl` returned a melting point of 270 °C. Consider `CC(=O)CN1CCC(CCN2CC=C(c3cccc(C#N)c3)CC2)CC1`, for which the melting point stood at 94 °C. With `COCCCC(=O)N[C@H]1CC[C@H](CCN2CC=C(c3cccc(C#N)c3)CC2)CC1` the figure was 178 °C; with `N#CCCCC(=O)N[C@H]1CC[C@H](CCN2CC=C(c3cc(C(F)(F)F)ccc3F)CC2)CC1`, 153 °C. Turning to `CC(=O)CN1CCC(CCN2CCN(c3ccc(F)c(C)c3)CC2)CC1.Cl.Cl`, the melting point came to 258 °C. The compound `Cl.O=C(CCC(F)(F)F)N1CCC(CCN2CCN(c3cccc4c3CCC4)CC2)CC1` gave a melting point of 219 °C.

`CCc1ccccc1C1=CCN(CC[C@H]2CC[C@H](NC(=O)CC#N)CC2)CC1` came in with a melting point of 158 °C. Regarding `Cc1ccccc1C1=CCN(CC[C@H]2CC[C@H](NC(=O)CC#N)CC2)CC1`, the melting point was 166 °C. `CC(=O)CN1CCC(CCN2CC=C(c3ccccc3C)CC2)CC1.Cl.Cl` had a melting point of 292 °C. Compound `CSc1ccccc1N1CCN(CCC2CCN(CC(C)=O)CC2)CC1.Cl.Cl` yielded a melting point of 280 °C. The result for `CC(=O)CN1CCC(CCN2CCN(c3cccc(Cl)c3C#N)CC2)CC1.Cl.Cl` reads 284 °C.
